# Test results from patent US11840521B2, “Modulators of Mas-related G-protein receptor X4 and related products and methods” (Escient Pharmaceuticals, Inc., priority 2019, dated 2023).
# Read-outs that look alike come from different tables or passages of the source.
# Biological target: MRGPRX4 (Homo sapiens, UniProt Q96LA9)
# Assay: MRGPR X4 antagonist activity, IP-One Gq HTRF assay in stably transfected HEK cells (versus agonist bilirubin, deoxycholic acid, conjugated bilirubin, urobilin, obeticholic acid or BAR502)
# Assay type: cell-based
# Design: expressed in transfected cells; host or cells: HEK cells, stably transfected
# Experimental: HEK cells stably transfected to express human MRGPR X4 were maintained in an incubator at 37° C. with 5% CO2 and grown in DMEM media with 10% fetal bovine serum (FBS) and 1% each of sodium pyruvate, Glutamax, penicillin/streptomycin, and Geneticin. HEK cells stably transfected to express mouse MRGPR A1 were maintained in the same incubator and grown in DMEM media with 10% FBS, 1% each of sodium pyruvate, Glutamax, penicillin/streptomycin, Geneticin, and 2.2 mg/mL Hygromycin.
# Cells were plated in a 384-well assay plate at 20,000 cells per well in 12 μL of Opti-MEM and kept in an incubator overnight. On the day of the assay, compounds solubilized at 10 mM in DMSO were added as a 10-point curve (10 uM final top concentration with 1:3 serial dilutions) using a Tecan D300E digital dispenser. […] Final concentrations of DMSO were kept consistent across the plate. Plates were incubated in the dark for 1 h at 37° C. and then for 30 minutes at room temperature. IP-1 standards and HTRF detection reagents were added according to the IP-One—Gq Kit purchased from Cisbio (part number 62IPAPEJ) and incubated in the dark for 1 h at room temperature. The plate was read on a Molecular Devices SpectraMax iD5 plate reader. The HTRF ratio was calculated from the raw data and graphed using GraphPad Prism to calculate an IC50 value for each compound.
# [1] = versus 10 μM Bilirubin agonist, HEK cells expressing human MRGPR X4, read-out: MRGPR4 Antagonist Activity
# Sequence of MRGPRX4 (Q96LA9 whole entry): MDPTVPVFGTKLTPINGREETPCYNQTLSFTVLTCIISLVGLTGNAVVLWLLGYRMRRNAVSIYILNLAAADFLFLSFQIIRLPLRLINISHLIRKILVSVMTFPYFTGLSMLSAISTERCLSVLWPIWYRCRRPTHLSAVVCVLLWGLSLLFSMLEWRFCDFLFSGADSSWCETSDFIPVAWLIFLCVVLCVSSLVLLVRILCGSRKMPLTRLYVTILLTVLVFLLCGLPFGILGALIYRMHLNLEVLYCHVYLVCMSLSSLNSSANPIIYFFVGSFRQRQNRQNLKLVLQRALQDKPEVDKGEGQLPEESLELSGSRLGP
SMILES,IC50 [1],further results
COC(=O)c1cccc(COc2ccc(Cl)cc2C(F)(F)F)c1 [Compound 1-1],1000 to 2500 nM,
COC(=O)c1cccc(COc2ccc(C(F)(F)F)cc2Cl)c1 [Compound 1-2],100 to 500 nM,
COC(=O)c1cccc(COc2ccc(C#N)cc2Cl)c1 [Compound 1-3],1000 to 2500 nM,
COC(=O)c1cccc(COc2ccc(Cl)cc2Cl)c1 [Compound 1-4],> 2500 nM,
COC(=O)c1cccc(COc2cccc(F)c2)c1 [Compound 1-5],100 to 500 nM,
COC(=O)c1cccc(COc2ccc(OC(F)(F)F)cc2)c1 [Compound 1-6],1000 to 2500 nM,
COC(=O)c1cccc(COc2ccc(N3CCOCC3)cc2)c1 [Compound 1-7],1000 to 2500 nM,
COC(=O)c1cccc(COc2ccc3scnc3c2)c1 [Compound 1-8],> 2500 nM,
COC(=O)c1cncc(COc2ccc(Cl)cc2Cl)n1 [Compound 1-9],1000 to 2500 nM,
COC(=O)c1cccc(COc2ccc(Cl)cc2C(F)(F)F)n1 [Compound 1-10],500 to 1000 nM,
COC(=O)c1cccc(COc2ccc(C(F)(F)F)cc2Cl)n1 [Compound 1-11],< 100 nM,
COC(=O)c1cccc(COc2ccc3ccccc3c2)n1 [Compound 1-12],< 100 nM,
COC(=O)c1cccc(COc2ccc(Cl)cc2C)n1 [Compound 1-13],100 to 500 nM,
COC(=O)c1ccc(COc2ccc(Cl)cc2Cl)s1 [Compound 1-14],1000 to 2500 nM,
COC(=O)c1cc(COc2ccc(Cl)cc2Cl)on1 [Compound 1-15],1000 to 2500 nM,
"Cc1cc(C(F)(F)F)ccc1OCc1cccc(C(=O)O)c1 [Compound 1-16, 3-((2-methyl-4-(trifluoromethyl)phenoxy)methyl)benzoic acid]",< 100 nM,
O=C(O)c1cccc(COc2ccc3ccccc3c2)c1 [Compound 1-17],100 to 500 nM,
O=C(O)c1cccc(COc2cc(Cl)ccc2Cl)c1 [Compound 1-19],1000 to 2500 nM,
COc1cc(C(=O)O)ccc1OCc1ccc(Cl)cc1 [Compound 1-20],1000 to 2500 nM,
O=C(O)c1cccc(COc2ccc(Cl)cc2)c1 [Compound 1-21],100 to 500 nM,

SMILES,IC50 [1],further results
O=C(O)c1cccc(COc2ccccc2Cl)c1 [Compound 1-22],> 2500 nM,
O=C(O)c1cccc(COc2ccc(Cl)cc2F)c1 [Compound 1-23],500 to 1000 nM,
O=C(O)c1cccc(COc2ccc(F)cc2Cl)c1 [Compound 1-24],> 2500 nM,
O=C(O)c1cccc(COc2c(Cl)cccc2Cl)c1 [Compound 1-25],> 2500 nM,
COc1ccc(C(=O)O)cc1COc1ccc(Cl)cc1Cl [Compound 1-27],> 2500 nM,
O=C(O)c1cccc(COc2ccc(Cl)cc2C(F)(F)F)c1 [Compound 1-28],100 to 500 nM,
O=C(O)c1cccc(COc2ccc3ccccc3c2)n1 [Compound 1-30],< 100 nM,
O=C(O)c1cccc(COc2ccc(Cl)cc2C(F)(F)F)n1 [Compound 1-31],< 100 nM,"IC50 (read-out: IC50 (10 μM BAR502) nM, MRGPRX4 antagonists versus 10 μM BAR502 agonist): 11 nM; IC50 (versus 10 μM Bilirubin agonist, read-out: IC50 (Bilirubin agonist)): 10 nM; IC50 (versus 20 μM deoxycholic acid, read-out: IC50 (Deoxycholic Acid agonist)): 5 nM; IC50 (versus 20 μM obeticholic acid, read-out: IC50 (Obeticholic Acid Agonist)): 5 nM; IC50 (versus 50 μM urobilin, read-out: IC50 (Urobilin Agonist)): 7 nM; IC50 (versus 100 μM conjugated bilirubin, read-out: IC50 (Conjugated Bilirubin Agonist)): 9 nM"
COc1ccc(COc2ccc(Cl)cc2Cl)cc1C(=O)O [Compound 1-32],1000 to 2500 nM,
O=C(O)c1cccc(COc2cccc3c2CCC3)c1 [Compound 1-33],1000 to 2500 nM,
N#Cc1ccc(OCc2cccc(C(=O)O)c2)cc1 [Compound 1-34],> 2500 nM,
N#Cc1ccc(OCc2cccc(C(=O)O)c2)c(Cl)c1 [Compound 1-35],100 to 500 nM,
O=C(O)c1cccc(COc2ccc(Cl)cc2)n1 [Compound 1-36],500 to 1000 nM,
COc1ccccc1OCc1cccc(C(=O)O)c1 [Compound 1-37],100 to 500 nM,
COc1ccc(OCc2cccc(C(=O)O)c2)cc1 [Compound 1-38],100 to 500 nM,
COc1cccc(OCc2cccc(C(=O)O)c2)c1 [Compound 1-39],100 to 500 nM,
O=C(O)c1cccc(COc2ccccc2F)c1 [Compound 1-40],1000 to 2500 nM,
O=C(O)c1cccc(COc2ccc(C(F)(F)F)cc2)c1 [Compound 1-41],100 to 500 nM,
O=C(O)c1cccc(COc2ccc3c(c2)CCC3)c1 [Compound 1-42],1000 to 2500 nM,
